Patent US20230036854A1, “HETEROCYCLIC SPIRO-COMPOUNDS AS AM2 RECEPTOR INHIBITORS” (THE UNIVERSITY OF SHEFFIELD, priority 2018, published 2023)

Biological target: T1, AM2 receptor (1321N1 cells transfected with CALCRL+RAMP3) (Homo sapiens, UniProt O60896+Q16602)
T1 construct: host or cells: 1321N1 cells
Test: AM2 receptor inhibition, LANCE cAMP agonist-antagonist competition assay
Assay type: cell-based
Conditions: inhibition of AM induced cAMP activation, read-out: AM2 D2 protocol: pIC50 (converted)
Protocol: Compounds were assessed for their ability to inhibit ligand-induced elevations of cAMP, using the Perkin Elmer LANCE cAMP assay using commercially-available cells expressing a specific receptor of interest using the following general procedure:
Compounds were prepared in dimethyl sulfoxide (DMSO—99.9% pure) (Sigma Aldrich, Cat #: D4540) added to powder stocks to produce a 20 mM solution (100% DMSO) that was sonicated at 37° C. for 10 minutes to fully dissolve the compounds. The 20 mM stocks were diluted further in DMSO to produce a 2 mM solution that was sonicated at 37° C. for 10 minutes. 2 mM stocks were dissolved in assay/stimulation buffer to produce a 400 μM solution that was sonicated at 37° C. for 10 minutes for all cAMP assays. All stocks were stored at −20° C. Then serial dilution (Dilution factor: 10) was performed to achieve the desire experimental concentrations.
Competition assays were performed according to the manufactures instructions using LANCE® TR-FRET cAMP assay kit (Perkin Elmer, Cat #: AD0264). Serial dilutions (3 μl/well) of the molecules were plated in a 384-well OptiPlate (Perkin Elmer, Cat #: 6007299) in duplicates. Appropriate controls (100% stimulation: Forskolin and 0% stimulation: Vehicle control) (6 μl/well) were included in each plate for data normalization. Following the compound addition, 6 μl of G-protein coupled receptor overexpressing cells/Alexa Fluor antibody solution (1:100 dilution) was added in each well at a desired density of 2500cells/well. The overexpressing cell lines were purchased from DiscoveRx, Birmingham, UK. After spinning the plate at 1000 rpm for 1 minute and vortexing briefly, the cells were pre-incubated with the compounds for 30 minutes at room temperature (covered). Then 3 μl of the equivalent peptide ligand (EC50 dose) was added to all the wells except vehicle and forskolin controls. The plate were then spun down at 1000 rpm for 1 minute and once finished they were vortexed briefly and covered. Cells were stimulated in the presence of the ligands for 15 minutes at room temperature. After stimulation 12 μl of detection mix (Europium-Chelate streptavidin/biotinylated cAMP tracer solution) was added to all wells and incubated for 60 minutes at room temperature. The plate was then read on the Enspire multimode Plate reader (Perkin Elmer), at; 320/340 nm excitation and 615/665 nm emission was recorded.
Assay/Stimulation Buffer (30 mL)—pH 7.4 • 28 mL Hank's Balanced salt solution (+MgCl2, +CaCl2)—(Thermo Fisher Cat #:14170112) • 150 μl HEPES (1M)—(Thermo Fisher Cat #:15630080) • 400 μl Stabilizer (DTPA) Purified BSA (7.5%)—(Perkin Elmer, Cat #: CR84-100)
The ability of a compound to inhibit the AM induced cAMP activation in AM2 receptor-expressing cells (1321N1 cells transfected with CALCRL+RAMP3, sourced from DiscoverX catalogue number 95-0169C6) was assessed using the protocol above.

T1 sequence (Q16602 23-461): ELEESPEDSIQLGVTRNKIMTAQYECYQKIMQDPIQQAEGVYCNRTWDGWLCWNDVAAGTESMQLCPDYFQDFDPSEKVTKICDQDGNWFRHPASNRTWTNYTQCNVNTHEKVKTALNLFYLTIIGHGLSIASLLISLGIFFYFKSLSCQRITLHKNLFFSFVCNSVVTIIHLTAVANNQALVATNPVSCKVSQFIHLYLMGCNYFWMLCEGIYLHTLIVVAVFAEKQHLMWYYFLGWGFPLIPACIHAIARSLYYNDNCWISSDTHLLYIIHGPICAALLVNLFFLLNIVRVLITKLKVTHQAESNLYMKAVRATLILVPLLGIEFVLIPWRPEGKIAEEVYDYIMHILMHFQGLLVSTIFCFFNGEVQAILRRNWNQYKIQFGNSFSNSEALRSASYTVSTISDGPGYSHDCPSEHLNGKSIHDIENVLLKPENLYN
T1 sequence (O60896 24-148): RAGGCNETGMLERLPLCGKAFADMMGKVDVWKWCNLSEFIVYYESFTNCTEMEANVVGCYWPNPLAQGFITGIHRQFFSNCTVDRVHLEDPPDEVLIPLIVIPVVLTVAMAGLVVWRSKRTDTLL

IC50 [nM] | SMILES
1.26 | CCC1(C(=O)N(CC(=O)Nc2ccc3c(c2)C[C@@]2(C3)C(=O)Nc3ncccc32)Cc2ccccc2CNC)CCN(C(=O)c2cncs2)CC1 [Example 86, (R)-4-Ethyl-N-(2-((methylamino)methyl)benzyl)-N-(2-oxo-2-((2′-oxo-1,1′,2′,3-tetrahydrospiro[indene-2,3′-pyrrolo[2,3-b]pyridin]-5-yl)amino)ethyl)-1-(thiazole-5-carbonyl)piperidine-4-carboxamide]
135 | CNCc1ccccc1CN(CC(=O)Nc1ccc2c(c1)C[C@@]1(C2)C(=O)Nc2ncccc21)C(=O)C1(C)CCN(CC(=O)O)CC1 [Example 43, (R)-2-(4-Methyl-4-((2-((methylamino)methyl)benzyl)(2-oxo-2-((2′-oxo-1,1′,2′,3-tetrahydrospiro[indene-2,3′-pyrrolo[2,3-b]pyridin]-5-yl)amino)ethyl)carbamoyl)piperidin-1-yl)acetic Acid]
37.2 | CCC1(C(=O)N(CC(=O)Nc2ccc3c(c2)C[C@@]2(C3)C(=O)Nc3ncccc32)Cc2ccccc2CNC)CCN(C(=O)c2ccc(F)cn2)CC1 [Example 76, (R)-4-Ethyl-1-(5-fluoropicolinoyl)-N-(2-((methylamino)methyl)benzyl)-N-(2-oxo-2-((2′-oxo-1,1′,2′,3-tetrahydrospiro[indene-2,3′-pyrrolo[2,3-b]pyridin]-5-yl)amino)ethyl)piperidine-4-carboxamide]
1.48 | CNCc1ccccc1CN(CC(=O)Nc1ccc2c(c1)CC1(C2)C(=O)Nc2ncccc21)C(=O)C1(C)CCN(C(=O)C2CCC2)CC1 (stereo not drawn) [Example 5, 1-(Cyclobutanecarbonyl)-4-methyl-N-(2-((methylamino)methyl)benzyl)-N-(2-oxo-2-((2′-oxo-1,1′,2′,3-tetrahydrospiro[indene-2,3′-pyrrolo[2,3-b]pyridin]-5-yl)amino)ethyl)piperidine-4-carboxamide]
35.5 | CNCc1ccccc1CN(CC(=O)Nc1ccc2c(c1)C[C@@]1(C2)C(=O)Nc2ncccc21)C(=O)C1(C)CCN(CC(N)=O)CC1 [Example 37, (R)-1-(2-Amino-2-oxoethyl)-4-methyl-N-(2-((methylamino)methyl)benzyl)-N-(2-oxo-2-((2′-oxo-1,1′,2′,3-tetrahydrospiro[indene-2,3′-pyrrolo[2,3-b]pyridin]-5-yl)amino)ethyl)piperidine-4-carboxamide]
1.82 | CNCc1ccccc1CN(CC(=O)Nc1ccc2c(c1)C[C@@]1(C2)C(=O)Nc2ncccc21)C(=O)C1(C)CCN(C)CC1 [Example 36, (R)-1,4-Dimethyl-N-(2-((methylamino)methyl)benzyl)-N-(2-oxo-2-((2′-oxo-1,1′,2′,3-tetrahydrospiro[indene-2,3′-pyrrolo[2,3-b]pyridin]-5-yl)amino)ethyl)piperidine-4-carboxamide]
1.45 | CCC1(C(=O)N(CC(=O)Nc2ccc3c(c2)C[C@@]2(C3)C(=O)Nc3ncccc32)Cc2ccccc2CNC)CCN(C(=O)N(C)C)CC1 [Example 99, (R)-4-Ethyl-N1, N1-dimethyl-N4-(2-((methylamino)methyl)benzyl)-N4-(2-oxo-2-((2′-oxo-1,1′,2′,3-tetrahydrospiro[indene-2,3′-pyrrolo[2,3-b]pyridin]-5-yl)amino)ethyl)piperidine-1,4-dicarboxamide]
6.46 | CNCc1ccccc1CN(CC(=O)Nc1ccc2c(c1)C[C@@]1(C2)C(=O)Nc2ncccc21)C(=O)C1(C)CCN(C(=O)C[C@H]2CCNC2)CC1 [Example 11, 4-Methyl-N-(2-((methylamino)methyl)benzyl)-N-(2-oxo-2-(((R)-2′-oxo-1,1′,2′,3-tetrahydrospiro[indene-2,3′-pyrrolo[2,3-b]pyridin]-5-yl)amino)ethyl)-1-(2-((R)-pyrrolidin-3-yl)acetyl)piperidine-4-carboxamide]
2.14 | CNCc1ccccc1CN(CC(=O)Nc1ccc2c(c1)C[C@@]1(C2)C(=O)Nc2ncccc21)C(=O)C1(C)CCN(C(=O)c2ccn[nH]2)CC1 [Example 25, (R)-4-Methyl-N-(2-((methylamino)methyl)benzyl)-N-(2-oxo-2-((2′-oxo-1,1′,2′,3-tetrahydrospiro[indene-2,3′-pyrrolo[2,3-b]pyridin]-5-yl)amino)ethyl)-1-(1H-pyrazole-5-carbonyl) piperidine-4-carboxamide]

The next lines start with the compound.

SMILES | IC50 [nM]
CNCc1ccccc1CN(CC(=O)Nc1ccc2c(c1)C[C@@]1(C2)C(=O)Nc2ncccc21)C(=O)C1(C)CCN(CC(F)(F)F)CC1 [Example 39, (R)-4-Methyl-N-(2-((methylamino)methyl)benzyl)-N-(2-oxo-2-((2′-oxo-1,1′,2′,3-tetrahydrospiro[indene-2,3′-pyrrolo[2,3-b]pyridin]-5-yl)amino)ethyl)-1-(2,2,2-trifluoroethyl)piperidine-4-carboxamide] | 19.5
CC1(C(=O)N(CC(=O)Nc2ccc3c(c2)C[C@@]2(C3)C(=O)Nc3ncccc32)Cc2ccccc2CN)CCNCC1 [Example 131, (R)—N-(2-(Aminomethyl)benzyl)-4-methyl-N-(2-oxo-2-((2′-oxo-1,1′,2′,3-tetrahydrospiro[indene-2,3′-pyrrolo[2,3-b]pyridin]-5-yl)amino)ethyl)piperidine-4-carboxamide] | 302
CNCc1ccccc1CN(CC(=O)Nc1ccc2c(c1)C[C@@]1(C2)C(=O)Nc2ncccc21)C(=O)C1(C)CCN(c2cccnn2)CC1 [Example 59, (R)-4-Methyl-N-(2-((methylamino)methyl)benzyl)-N-(2-oxo-2-((2′-oxo-1,1′,2′,3-tetrahydrospiro[indene-2,3′-pyrrolo[2,3-b]pyridin]-5-yl)amino)ethyl)-1-(pyridazin-3-yl)piperidine-4-carboxamide] | 49
CNCc1ccccc1CN(CC(=O)Nc1ccc2c(c1)C[C@@]1(C2)C(=O)Nc2ncccc21)C(=O)C1(C)CCNC1 (stereo partly drawn) [Example 142, 3-Methyl-N-(2-((methylamino)methyl)benzyl)-N-(2-oxo-2-(((R)-2′-oxo-1,1′,2′,3-tetrahydrospiro[indene-2,3′-pyrrolo[2,3-b]pyridin]-5-yl)amino)ethyl)pyrrolidine-3-carboxamide] | 40.7
CNCc1ccccc1CN(CC(=O)Nc1ccc2c(c1)C[C@@]1(C2)C(=O)Nc2ncccc21)C(=O)C1(C)CC2CCC(C1)N2C(C)=O (stereo partly drawn) [Example 148, 8-Acetyl-3-methyl-N-(2-((methylamino)methyl)benzyl)-N-(2-oxo-2-(((R)-2′-oxo-1,1′,2′,3-tetrahydrospiro[indene-2,3′-pyrrolo[2,3-b]pyridin]-5-yl)amino)ethyl)-8-azabicyclo[3.2.1]octane-3-carboxamide] | 2.24
CNCc1cc(F)ccc1CN(CC(=O)Nc1ccc2c(c1)C[C@@]1(C2)C(=O)Nc2ncccc21)C(=O)C1(C)CCN(C(C)=O)CC1 [Example 138, (R)-1-Acetyl-N-[[4-fluoro-2-(methylaminomethyl)phenyl]methyl]-4-methyl-N-[2-oxo-2-[[(3R)-2-oxospiro[1H-pyrrolo[2,3-b]pyridine-3,2′-indane]-5′-yl]amino]ethyl]piperidine-4-carboxamide] | 501
CNCc1ccccc1CN(CC(=O)Nc1ccc2c(c1)C[C@@]1(C2)C(=O)Nc2ncccc21)C(=O)C1(C)CCN(Cc2cccc(C(=O)O)c2)CC1 [Example 47, (R)-3-((4-Methyl-4-((2-((methylamino)methyl)benzyl)(2-oxo-2-((2′-oxo-1,1′,2′,3-tetrahydrospiro[indene-2,3′-pyrrolo[2,3-b]pyridin]-5-yl)amino)ethyl)carbamoyl)piperidin-1-yl)methyl)benzoic Acid] | 5.01
CC(=O)N1CCC(C)(C(=O)N(CC(=O)Nc2ccc3c(c2)C[C@@]2(C3)C(=O)Nc3ncccc32)Cc2ccccc2CN)CC1 [Example 132, (R)-1-Acetyl-N-(2-(aminomethyl)benzyl)-4-methyl-N-(2-oxo-2-((2′-oxo-1,1′,2′,3-tetrahydrospiro[indene-2,3′-pyrrolo[2,3-b]pyridin]-5-yl)amino)ethyl)piperidine-4-carboxamide] | 148
CNCc1ccccc1CN(CC(=O)Nc1cc2c(cc1C)CC1(C2)C(=O)Nc2ncccc21)C(=O)C1(C)CCNCC1 (stereo not drawn) [Example 128, 4-Methyl-N-(2-((5-methyl-2′-oxo-1,1′,2′,3-tetrahydrospiro[indene-2,3′-pyrrolo[2,3-b]pyridin]-6-yl)amino)-2-oxoethyl)-N-(2-((methylamino)methyl)benzyl)piperidine-4-carboxamide] | 87.1
